From the NIST ThermoML archive (doi:10.1021/je025657+)
“And” between values parts separate entries of the source, which are not always exact repeats. Identical values can stand only once.

Conditions: for vapor or sublimation pressure: Closed cell (Static) method

COC(F)(F)F [trifluoromethoxymethane]
Conditions	mass density [kg/m3]
350 K, 2141.2 kPa, Liquid	873.54
350 K, 2548.5 kPa, Liquid	883.49
350 K, 3078 kPa, Liquid	894.77
350 K, 3561.7 kPa, Liquid	903.94
350 K, 4061.4 kPa, Liquid	912.5
350 K, 4604.4 kPa, Liquid	920.96
350 K, 5110.9 kPa, Liquid	928.26
350 K, 5614.7 kPa, Liquid	935
350 K, 6145.6 kPa, Liquid	941.66
350 K, 6708.6 kPa, Liquid	948.27
350 K, 7180.7 kPa, Liquid	953.51
360 K, 2566.6 kPa, Liquid	806.04
360 K, 2595.3 kPa, Liquid	807.47
360 K, 2674 kPa, Liquid	811
360 K, 3046.9 kPa, Liquid	825.94
360 K, 3567.7 kPa, Liquid	842.69
360 K, 4099.1 kPa, Liquid	856.85
360 K, 4614.4 kPa, Liquid	868.64
360 K, 5110 kPa, Liquid	878.67
360 K, 5611.7 kPa, Liquid	887.84
360 K, 6201.7 kPa, Liquid	897.63
360 K, 6215.7 kPa, Liquid	897.87
360 K, 6705.8 kPa, Liquid	905.3
360 K, 7100.8 kPa, Liquid	910.94
370 K, 3130.2 kPa, Liquid	712.6
370 K, 3147.8 kPa, Liquid	715.08
370 K, 3586 kPa, Liquid	754.94
370 K, 4068.1 kPa, Liquid	781.44
370 K, 4642.5 kPa, Liquid	804.25
370 K, 5159.1 kPa, Liquid	820.53
370 K, 5641.4 kPa, Liquid	833.56
370 K, 6176.7 kPa, Liquid	846.09
370 K, 6712.7 kPa, Liquid	857.24
370 K, 7155.1 kPa, Liquid	865.58
380 K, 345.8 kPa, Gas	11.4
380 K, 411.6 kPa, Gas	13.64
380 K, 637.2 kPa, Gas	21.72
380 K, 1069 kPa, Gas	38.43
380 K, 1190.9 kPa, Gas	43.52
380 K, 1736.8 kPa, Gas	68.74
380 K, 2282.2 kPa, Gas	99.68
380 K, 2913 kPa, Gas	148.72
380 K, 3383.7 kPa, Gas	207.93
380 K, 3672.6 kPa, Gas	287.87
380 K, 3791.1 kPa, Gas	430.78
380 K, 3807.7 kPa, Liquid	489.63
380 K, 4003.4 kPa, Liquid	629
380 K, 4596.7 kPa, Liquid	707.34
380 K, 5159.5 kPa, Liquid	743.66
380 K, 5653.6 kPa, Liquid	766.09
380 K, 6175.8 kPa, Liquid	785.18
380 K, 6672.5 kPa, Liquid	800.32
380 K, 7138.9 kPa, Liquid	812.7

Liquid
Conditions	mass density [kg/m3]	vapor or sublimation pressure
350 K	871.95	2074.9 kPa and 2075 kPa and 2071.7 kPa
355 K	–	2304.3 kPa
360 K	805.64	2553.1 kPa and 2553.8 kPa and 2554.9 kPa
365 K	–	2823.3 kPa
370 K	711.78	3116.4 kPa and 3117.3 kPa and 3117.1 kPa
375 K	–	3435.7 kPa

Gas, Burnett expansion method
Conditions	mass density [kg/m3]
360 K, 150.4 kPa	5.122
360 K, 208.1 kPa	7.139
360 K, 223.5 kPa	7.683
360 K, 330.6 kPa	11.52
360 K, 455 kPa	16.13
360 K, 484.7 kPa	17.25
360 K, 704.6 kPa	25.9
360 K, 952.6 kPa	36.41
360 K, 1007.9 kPa	38.88
360 K, 1335.8 kPa	54.71
360 K, 1406.7 kPa	58.43
360 K, 1807.1 kPa	82.26
360 K, 1888.4 kPa	87.85
360 K, 2309 kPa	123.6
360 K, 2385.4 kPa	132
370 K, 154.7 kPa	5.117
370 K, 215.6 kPa	7.182
370 K, 230 kPa	7.677
370 K, 318.3 kPa	10.73
370 K, 340.6 kPa	11.52
370 K, 500.1 kPa	17.24
370 K, 686.1 kPa	24.23
370 K, 728.8 kPa	25.88
370 K, 1046.2 kPa	38.85
370 K, 1393.4 kPa	54.67
370 K, 1468.6 kPa	58.37
370 K, 1901.8 kPa	82.19
370 K, 1990.6 kPa	87.72
370 K, 2469.3 kPa	123.6
370 K, 2559 kPa	132
370 K, 2970.3 kPa	185.3
370 K, 3031.6 kPa	197.4
380 K, 147.8 kPa	4.751
380 K, 158.9 kPa	5.114
380 K, 220.5 kPa	7.14
380 K, 236.5 kPa	7.671
380 K, 327.6 kPa	10.73
380 K, 350.5 kPa	11.51
380 K, 483.9 kPa	16.12
380 K, 515.4 kPa	17.23
380 K, 708.4 kPa	24.22
380 K, 752.6 kPa	25.86
380 K, 1023.5 kPa	36.37
380 K, 1084 kPa	38.82
380 K, 1450 kPa	54.63
380 K, 1529.5 kPa	58.32
380 K, 1994.4 kPa	82.12
380 K, 2092.4 kPa	87.73
380 K, 2624.1 kPa	123.5
380 K, 2726.4 kPa	131.8
380 K, 3233.6 kPa	185.9
380 K, 3316.9 kPa	198.3
380 K, 3647 kPa	276.7
380 K, 3686.3 kPa	294.2
380 K, 3776.4 kPa	381.1
380 K, 3786.4 kPa	439.7
